The text below walks through data of PubChem BioAssay AID310 (DTP/NCI, 2004).

In the test the test system is C3AKF1 mice, osteogenic sarcoma HE10734 s.c., tumor weight T/C. In words: NCI In Vivo Anticancer Drug Screen. Data for tumor model Osteogenic Sarcoma HE 10734 (subcutaneous) in C3AKF1 (CHKRF1) mice. Particulars: endpoint: mean tumor weight, schedule: Q01DX010 (ip), higher = larger tumour. Here is the method:
The antitumor activity of compounds was measured in mice bearing transplantable tumors. Survival or tumor size were measured and the results are expressed as the measurement made in the treated group (T) divided by the measurement made in the vehicle treated control group (C). The tumor model used in this assay is Osteogenic Sarcoma HE 10734 (subcutaneous) in C3AKF1 (CHKRF1) mice

Where [1] appears, read: dose: 125.0 mg/kg/injection, vehicle: saline.
The mark [2] stands for this setting: dose: 100.0 mg/kg/injection, vehicle: saline.
The mark [3] stands for this setting: dose: 150.0 mg/kg/injection, vehicle: saline.
Setting [4] is: dose: 30.0 mg/kg/injection, vehicle: carboxymethylcellulose (CMC).
The mark [5] stands for this setting: dose: 100.0 mg/kg/injection, vehicle: carboxymethylcellulose (CMC).
The mark [6] stands for this setting: dose: 12.5 mg/kg/injection, vehicle: carboxymethylcellulose (CMC).
The mark [7] stands for this setting: dose: 25.0 mg/kg/injection, vehicle: carboxymethylcellulose (CMC).
Where [8] appears, read: dose: 50.0 mg/kg/injection, vehicle: carboxymethylcellulose (CMC).
The mark [9] stands for this setting: dose: 10.0 mg/kg/injection, vehicle: carboxymethylcellulose (CMC).
Where [10] appears, read: dose: 250.0 mg/kg/injection, vehicle: saline.
Where [11] appears, read: dose: 500.0 mg/kg/injection, vehicle: saline.
[12] abbreviates: dose: 1000.0 mg/kg/injection, vehicle: saline.

Values joined by “and” are separate entries in the source; they are usually repeats but may differ in a detail not shown here. Equal values may be shown once. Records with an inconclusive call do not appear. Where a SMILES comes first, the peptide text is derived from it. [ ]: non-standard residue; d: D form. Ac5c = NC1(C(=O)O)CCCC1

Take `C=CCn1c(=O)n(CC=C)c(=O)n(CC=C)c1=O`: the T/C is 84 % of control (dose: 31.0 mg/kg/injection, vehicle: saline); 94 % of control (dose: 62.0 mg/kg/injection, vehicle: saline); 69 % of control under setting [1]; 31 % of control (dose: 375.0 mg/kg/injection, vehicle: saline).

As for `NCC(=O)NC1(C(=O)O)CCCC1` (H-Gly-[Ac5c]-OH), the T/C is 79 % of control (dose: 66.0 mg/kg/injection, vehicle: saline); 58 % of control under setting [2]; 35 % of control under setting [3]; 20 % of control and 27 % of control (dose: 225.0 mg/kg/injection, vehicle: saline).

In the case of `O=C(O)C(=O)c1ccc(-c2ccccc2)cc1`, the T/C (dose: 35.0 mg/kg/injection, vehicle: carboxymethylcellulose (CMC)) is 69 % of control.

Turning to `CCCCn1cnc2c(SC)nc(N)nc21`, the T/C by setting is: under setting [4], 69 % of control; (dose: 115.0 mg/kg/injection, vehicle: carboxymethylcellulose (CMC)) 71 % of control.

As for `CCCn1cnc2c(SCc3ccccc3Cl)nc(N)nc21`, the T/C is, setting by setting: under setting [5], 86 % of control; (dose: 200.0 mg/kg/injection, vehicle: carboxymethylcellulose (CMC)) 87 % of control; (dose: 400.0 mg/kg/injection, vehicle: carboxymethylcellulose (CMC)) 55 % of control.

Regarding `CCC(=O)NC1=C(N2CC2)C(=O)C(NC(=O)CC)=C(N2CC2)C1=O`, the T/C was 118 % of control (dose: 0.26 mg/kg/injection, vehicle: saline); 77 % of control (dose: 0.4 mg/kg/injection, vehicle: saline); 30 % of control (dose: 1.2 mg/kg/injection, vehicle: saline).

For the compound `Nc1nc(SCc2ccccc2Cl)c2ncn(C3OC(CO)C(O)C3O)c2n1` (stereo unspecified), the T/C is 90 % of control under setting [6], 81 % of control under setting [7] and 61 % of control under setting [8].

Regarding `Clc1ncnc2c1ncn2C1CCCO1` (stereo unspecified), the T/C is 77 % of control and 80 % of control (dose: 37.0 mg/kg/injection, vehicle: saline); 69 % of control (dose: 450.0 mg/kg/injection, vehicle: saline).

With `O=P(N1CC1)(N1CC1)N1CC1`, the T/C (dose: 0.5 mg/kg/injection, vehicle: carboxymethylcellulose (CMC)) is 104 % of control; the T/C (dose: 1.0 mg/kg/injection, vehicle: carboxymethylcellulose (CMC)) was 76 % of control; the T/C (dose: 2.0 mg/kg/injection, vehicle: carboxymethylcellulose (CMC)) is 67 % of control; the T/C (dose: 4.0 mg/kg/injection, vehicle: carboxymethylcellulose (CMC)) was 41 % of control.

Consider `CC(C)([NH-])CO.CC(C)([NH-])CO.[Cl][Cd][Cl]`, for which the T/C is 88 % of control (dose: 2.5 mg/kg/injection, vehicle: carboxymethylcellulose (CMC)); 57 % of control (dose: 5.0 mg/kg/injection, vehicle: carboxymethylcellulose (CMC)); 25 % of control under setting [9].

With `O=c1[nH]c2cc(Cl)c(Cl)cc2o1`, the T/C under setting [9] was 84 % of control; the T/C (dose: 16.0 mg/kg/injection, vehicle: carboxymethylcellulose (CMC)) was 113 % of control; the T/C (dose: 24.0 mg/kg/injection, vehicle: carboxymethylcellulose (CMC)) is 74 % of control; the T/C (dose: 37.0 mg/kg/injection, vehicle: carboxymethylcellulose (CMC)) is 105 % of control and 117 % of control; the T/C (dose: 55.0 mg/kg/injection, vehicle: carboxymethylcellulose (CMC)) was 80 % of control; the T/C (dose: 85.0 mg/kg/injection, vehicle: carboxymethylcellulose (CMC)) was 98 % of control.

On to `CC(=O)Nc1ccc(NC(=O)c2ccc([As](O)O)cc2)cc1`, for which the T/C runs as follows: (dose: 15.0 mg/kg/injection, vehicle: carboxymethylcellulose (CMC)) 89 % of control; under setting [4], 111 % of control; (dose: 60.0 mg/kg/injection, vehicle: carboxymethylcellulose (CMC)) 85 % of control; (dose: 120.0 mg/kg/injection, vehicle: carboxymethylcellulose (CMC)) 61 % of control and 62 % of control; (dose: 240.0 mg/kg/injection, vehicle: carboxymethylcellulose (CMC)) 32 % of control.

As for `CCCNC(=NC)c1ccc(NC(=O)c2ccc(C(=O)Nc3ccc(C(=NC)NCCC)cc3)cc2)cc1`, the T/C runs as follows: (dose: 3.0 mg/kg/injection, vehicle: saline) 91 % of control; (dose: 6.0 mg/kg/injection, vehicle: saline) 46 % of control; (dose: 12.0 mg/kg/injection, vehicle: saline) 46 % of control.

With `O=c1c[n+](-c2ccccc2)[nH]o1`, the T/C is 87 % of control (dose: 22.5 mg/kg/injection, vehicle: carboxymethylcellulose (CMC)); 110 % of control (dose: 45.0 mg/kg/injection, vehicle: carboxymethylcellulose (CMC)); 83 % of control (dose: 90.0 mg/kg/injection, vehicle: carboxymethylcellulose (CMC)); 70 % of control (dose: 180.0 mg/kg/injection, vehicle: carboxymethylcellulose (CMC)).

With `CC1(C)N=C(N)N=C(N)N1c1cccc(Br)c1`, the T/C was 89 % of control (dose: 4.4 mg/kg/injection, vehicle: carboxymethylcellulose (CMC)); 102 % of control (dose: 6.6 mg/kg/injection, vehicle: carboxymethylcellulose (CMC)); 50 % of control and 51 % of control under setting [9].

In the case of `CCCC(Sc1nc(N)nc2nc[nH]c12)C(=O)O` (stereo unspecified), the T/C is 80 % of control (dose: 50.0 mg/kg/injection, vehicle: saline); 53 % of control under setting [2]; 40 % of control (dose: 200.0 mg/kg/injection, vehicle: saline); 17 % of control (dose: 400.0 mg/kg/injection, vehicle: saline).

Take `CCN(CC)CCN1C(=O)c2cccc3cccc(c23)C1=O`: the T/C by setting is: under setting [7], 86 % of control; under setting [8], 78 % of control; under setting [5], 85 % of control.

`Cc1nc(N)nc(N)c1-c1ccc(Cl)c(Cl)c1`: the T/C runs as follows: (dose: 0.09 mg/kg/injection, vehicle: carboxymethylcellulose (CMC)) 94 % of control; (dose: 0.18 mg/kg/injection, vehicle: carboxymethylcellulose (CMC)) 103 % of control; (dose: 0.37 mg/kg/injection, vehicle: carboxymethylcellulose (CMC)) 88 % of control; (dose: 1.5 mg/kg/injection, vehicle: carboxymethylcellulose (CMC)) 21 % of control.

Consider `CCOC(=O)NC`, for which the T/C by setting is: under setting [1], 104 % of control; under setting [10], 67 % of control; under setting [11], 59 % of control; under setting [12], 27 % of control.

For the compound `CS(=O)(=O)OCC(O)C(O)COS(C)(=O)=O` (stereo unspecified), the T/C is 121 % of control under setting [1], 111 % of control under setting [10], 81 % of control under setting [11] and 101 % of control under setting [12].

Turning to `O=c1[nH]cnc2n[nH]nc12`, the T/C runs as follows: (dose: 75.0 mg/kg/injection, vehicle: saline) 80 % of control; under setting [3], 103 % of control; (dose: 300.0 mg/kg/injection, vehicle: saline) 87 % of control; (dose: 600.0 mg/kg/injection, vehicle: saline) 99 % of control.

On to `Cc1ccc(N2CCN(CCCN3CCN(c4ccc(Cl)cc4)CC3)CC2)cc1`, for which the T/C was 97 % of control (dose: 6.25 mg/kg/injection, vehicle: carboxymethylcellulose (CMC)); 77 % of control under setting [6]; 102 % of control under setting [7].
